# Assay results as given in patent US9751854B2 (Millennium Pharmaceuticals, Inc., priority 2014, dated 2017).
# Biological target: human VPS34 (Homo sapiens (Human), UniProt Q8NEB9)
# Assay: Human VPS34 enzyme assay (Adapta TR-FRET ADP detection)
# Assay type: biochemical
# Design: Percent Inhibition: dose or concentration left out as unconfirmed
# Conditions: not given
# human VPS34, sequence (Q8NEB9 whole entry): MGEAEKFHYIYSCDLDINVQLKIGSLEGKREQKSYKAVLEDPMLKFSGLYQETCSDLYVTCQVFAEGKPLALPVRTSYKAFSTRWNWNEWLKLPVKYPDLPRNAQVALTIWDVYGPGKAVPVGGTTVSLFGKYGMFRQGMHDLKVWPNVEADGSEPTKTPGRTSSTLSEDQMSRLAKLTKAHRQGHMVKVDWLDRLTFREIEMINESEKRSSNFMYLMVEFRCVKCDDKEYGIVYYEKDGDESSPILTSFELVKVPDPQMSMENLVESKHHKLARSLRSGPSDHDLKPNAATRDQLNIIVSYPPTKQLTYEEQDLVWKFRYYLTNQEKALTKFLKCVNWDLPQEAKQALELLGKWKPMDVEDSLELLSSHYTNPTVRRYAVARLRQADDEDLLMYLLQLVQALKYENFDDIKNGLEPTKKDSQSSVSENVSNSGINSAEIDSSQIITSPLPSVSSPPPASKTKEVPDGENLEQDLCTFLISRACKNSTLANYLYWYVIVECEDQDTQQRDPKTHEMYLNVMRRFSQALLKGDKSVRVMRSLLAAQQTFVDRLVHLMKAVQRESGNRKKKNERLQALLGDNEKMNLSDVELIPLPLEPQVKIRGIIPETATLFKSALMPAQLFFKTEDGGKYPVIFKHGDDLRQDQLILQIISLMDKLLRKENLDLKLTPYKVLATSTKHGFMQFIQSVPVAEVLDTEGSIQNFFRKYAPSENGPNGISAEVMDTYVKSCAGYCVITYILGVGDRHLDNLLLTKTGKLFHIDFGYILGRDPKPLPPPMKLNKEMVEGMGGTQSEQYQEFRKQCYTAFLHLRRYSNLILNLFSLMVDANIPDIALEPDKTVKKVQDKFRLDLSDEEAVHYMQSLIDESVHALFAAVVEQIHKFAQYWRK
row,Structure (SMILES),Percent Inhibition
1,"CC(=O)Nc1cc(-c2cnc(Cl)c(S(=O)(=O)N[C@H](CO)c3ccccc3)c2)ccn1 [Compound I-330, N-(6-chloro-5-{[(1S)-2-hydroxy-1-phenylethyl]sulfamoyl}-3,4′-bipyridin-2′-yl)acetamide]",>99%

# Same assay, conditions: IC50 range class
row,Structure (SMILES),IC50
1,"Cc1nc(Nc2cc(-c3cnc(C)c(NS(=O)(=O)c4ccc(F)cc4F)c3)ccn2)ccc1C#N [Compound I-289, N-{2′-[(5-cyano-6-methylpyridin-2-yl)amino]-6-methyl-3,4′-bipyridin-5-yl}-2,4-difluorobenzenesulfonamide]",< 0.01 µM
2,"CC(=O)Nc1cc(-c2cnc(Cl)c(NS(=O)(=O)c3ccc(F)cc3Cl)c2C)ccn1 [Compound I-290, N-(6-chloro-5-{[(2-chloro-4-fluorophenyl)sulfonyl]amino}-4-methyl-3,4′-bipyridin-2′-yl)acetamide]",0.01 to 0.05 µM
3,"Cc1ncc(-c2ccnc(Nc3ccnc(C(F)(F)F)n3)c2)cc1C(=O)N1CCC1 [Compound I-292, azetidin-1-yl(6-methyl-2′-[(2-(trifluoromethyl)pyrimidin-4-yl]amino}-3,4′-bipyridin-5-yl)methanone]",0.01 to 0.05 µM
4,"Cc1nccc(Nc2cc(-c3cnc(Cl)c(NS(=O)(=O)c4ccc(F)cc4F)c3C)c(F)cn2)n1 [Compound I-294, N-{6-chloro-5′-fluoro-4-methyl-2′-[(2-methylpyrimidin-4-yl)amino]-3,4′-bipyridin-5-yl}-2,4-difluorobenzenesulfonamide]",< 0.01 µM
5,"Cc1nccc(Nc2cc(-c3cnc(Cl)c(NC(=O)c4ccc(F)cc4F)c3C)ccn2)n1 [Compound I-295, N-{6-chloro-4-methyl-2′-[(2-methylpyrimidin-4-yl)amino]-3,4′-bipyridin-5-yl}-2,4-difluorobenzamide]",0.05 to 0.1 µM
6,"Cc1c(-c2ccnc(Nc3ccnc(C4CC4)n3)c2)cnc(Cl)c1NS(=O)(=O)c1ccc(F)cc1F [Compound I-296, N-{6-chloro-2′-[(2-cyclopropylpyrimidin-4-yl)amino]-4-methyl-3,4′-bipyridin-5-yl}-2,4-difluorobenzenesulfonamide]",0.01 to 0.05 µM
7,"Cc1ncc(-c2ccnc(Nc3ccccn3)c2)cc1NS(=O)(=O)c1ccc(F)cc1F [Compound I-297, 2,4-difluoro-N-[6-methyl-2′-(pyridin-2-ylamino)-3,4′-bipyridin-5-yl]benzenesulfonamide]",0.01 to 0.05 µM
8,"Cc1c(-c2ccnc(Nc3ncc(C#N)cn3)c2)cnc(Cl)c1NS(=O)(=O)c1ccc(F)cc1F [Compound I-300, N-{6-chloro-2′-[(5-cyanopyrimidin-2-yl)amino]-4-methyl-3,4′-bipyridin-5-yl}-2,4-difluorobenzenesulfonamide]",0.01 to 0.05 µM
9,"Cc1ncc(-c2ccnc(Nc3ccn(C)n3)c2)cc1NS(=O)(=O)c1ccc(F)cc1F [Compound I-301, 2,4-difluoro-N-{6-methyl-2′-[(1-methyl-1H-pyrazole-3-yl)amino]-3,4′-bipyridin-5-yl]benzenesulfonamide]",0.01 to 0.05 µM
10,"CCN(CC)C(=O)c1cc(-c2ccnc(Nc3ccnc(C)n3)c2)cnc1C [Compound I-302, N,N-diethyl-6-methyl-2′-[(2-methylpyrimidin-4-yl)amino]-3,4′-bipyridine-5-carboxamide]",0.01 to 0.05 µM
11,"CN(C(=O)c1cc(-c2ccnc(Nc3ccncn3)c2)cnc1N)C12CC(C1)C2 [Compound I-303, 6-amino-N-(bicyclo[1.1.1]pent-1-yl)-N-methyl-2′-(pyrimidin-4-ylamino)-3,4′-bipyridine-5-carboxamide]",0.01 to 0.05 µM
12,"Cc1ncc(-c2ccnc(NC(=O)C3CCC3)c2)cc1NS(=O)(=O)c1ccc(F)cc1F [Compound I-305, N-(5-{[(2,4-difluorophenyl)sulfonyl]amino}-6-methyl-3,4′-bipyridin-2′-yl)cyclobutanecarboxamide]",0.01 to 0.05 µM
13,"Cc1nccc(Nc2cc(-c3cnc(N(C)C)c(C(=O)N(C)C45CC(C4)C5)c3)ccn2)n1 [Compound I-306, N-(bicyclo[1.1.1]pent-1-yl)-6-(dimethylamino)-N-methyl-2′-((2-methylpyrimidin-4-yl)amino)-3,4′-bipyridine-5-carboxamide]",0.01 to 0.05 µM
14,"Cc1ccc(Nc2cc(-c3cnc(C)c(NS(=O)(=O)c4ccc(F)cc4F)c3)ccn2)nn1 [Compound I-307, 2,4-difluoro-N-{6-methyl-2′-[(6-methylpyridazin-3-yl)amino]-3,4′-bipyridin-5-yl}benzenesulfonamide]",0.01 to 0.05 µM
15,"Cc1c(-c2ccnc(Nc3ccncn3)c2)cnc(Cl)c1NS(=O)(=O)c1ccccc1 [Compound I-309, N-[6-chloro-4-methyl-2′-(pyrimidin-4-ylamino)-3,4′-bipyridin-5-yl]benzenesulfonamide]",< 0.01 µM
16,"Cc1ncc(-c2ccnc(Nc3cnccn3)c2)cc1NS(=O)(=O)c1ccc(F)cc1F [Compound I-310, 2,4-difluoro-N-[6-methyl-2′-(pyrazin-2-ylamino)-3,4′-bipyridin-5-yl]benzenesulfonamide]",< 0.01 µM
17,"Cc1ncc(-c2ccnc(NC(=O)C3CC3)c2)cc1NS(=O)(=O)N(C)C [Compound I-311, N-{5-[(dimethylsulfamoyl)amino]-6-methyl-3,4′-bipyridin-2′-yl)cyclopropanecarboxamide]",< 0.01 µM
18,"CC(=O)Nc1cc(-c2cnc(Cl)c(NS(=O)(=O)c3ccccc3)c2C)ccn1 [Compound I-312, N-{6-chloro-4-methyl-5-[(phenylsulfonyl)amino]-3,4′-bipyridin-2′-yl}acetamide]",0.01 to 0.05 µM
19,"Cc1ncc(-c2ccnc(NC(=O)N3CCCC3)c2)cc1NS(=O)(=O)c1ccc(F)cc1F [Compound I-313, N-(5-{[(2,4-difluorophenyl)sulfonyl]amino}-6-methyl-3,4′-bipyridin-2′-yl)pyrrolidine-1-carboxamide]",0.01 to 0.05 µM

row,Structure (SMILES),IC50
1,"Cc1nccc(Nc2cc(-c3cnc(Cl)c(N(C)C)c3C)ccn2)n1 [Compound I-314, 6-chloro-N5,N5,4-trimethyl-N2′-(2-methylpyrimidin-4-yl)-3,4′-bipyridine-2′,5-diamine]",0.01 to 0.05 µM
2,"Cc1nccc(Nc2cc(-c3cnc(C)c(C(=O)N4CCCC4)c3)ccn2)n1 [Compound I-315, {6-methyl-2′-[(2-methylpyrimidin-4-yl)amino]-3,4′-bipyridin-5-yl}(pyrrolidin-1-yl)methanone]",0.01 to 0.05 µM
3,"CC(=O)Nc1cc(-c2cncc(S(=O)(=O)NC3C4CC5CC(C4)CC3C5)c2)ccn1 (centres unmarked) [Compound I-318, N-[5-(adamantan-2-ylsulfamoyl)-3,4′-bipyridin-2′-yl]acetamide]",0.01 to 0.05 µM
4,"CC(=O)Nc1cc(-c2cnc(C)c(N(CCO)S(=O)(=O)c3ccc(F)cc3F)c2)ccn1 [Compound I-319, N-(5-{[(2,4-difluorophenyl)sulfonyl](2-hydroxyethyl)amino}-6-methyl-3,4′-bipyridin-2′-yl]acetamide]",> 0.1 µM
5,"CC(=O)Nc1cc(-c2cncc(N3CCCCS3(=O)=O)c2)ccn1 [Compound I-320, N-[5-(1,1-dioxido-1,2-thiazinan-2-yl)-3,4′-bipyridin-2′-yl]acetamide]",0.01 to 0.05 µM
6,"CC(=O)Nc1cc(-c2cncc(S(=O)(=O)NCc3ccccc3)c2)ccn1 [Compound I-321, N-[5-(benzylsulfamoyl)-3,4′-bipyridin-2′-yl]acetamide]",0.05 to 0.1 µM
7,"CC(=O)Nc1cc(-c2cnc(C)c(NS(=O)(=O)c3cccc(F)c3Cl)c2)ccn1 [Compound I-322, N-(5-{[(2-chloro-3-fluorophenyl)sulfonyl]amino}-6-methyl-3,4′-bipyridin-2′-yl)acetamide]",0.01 to 0.05 µM
8,"CC(=O)Nc1cc(-c2cnc(N)c(N3CCCN(C)S3(=O)=O)c2)ccn1 [Compound I-323, N-[6-amino-5-(6-methyl-1,1-dioxido-1,2,6-thiadiazinan-2-yl)-3,4′-bipyridin-2′-yl]acetamide]",0.01 to 0.05 µM
9,"Cc1ncc(-c2ccnc(NC(=O)OCC3(C)COC3)c2)cc1NS(=O)(=O)c1ccc(F)cc1F [Compound I-324, (3-methyloxetan-3-yl)methyl (5-{[(2,4-difluorophenyl)sulfonyl]amino}-6-methyl-3,4′-bipyridin-2′-yl)carbamate]",0.01 to 0.05 µM
10,"CNC1CN(c2cc(-c3ccnc(NC(C)=O)c3)cnc2C)S(=O)(=O)C1 (centres unmarked) [Compound I-325, N-{6-methyl-5-[4-(methylamino)-1,1-dioxidoisothiazolidin-2-yl]-3,4′-bipyridin-2′-yl}acetamide]",0.01 to 0.05 µM
11,"Cc1ncc(-c2ccnc(NC(=O)OCc3ccn(C)n3)c2)cc1NS(=O)(=O)c1ccc(F)cc1F [Compound I-326, (1-methyl-1H-pyrazol-3-yl)methyl (5-{[(2,4-difluorophenyl)sulfonyl]amino}-6-methyl-3,4′-bipyridin-2′-yl)carbamate]",< 0.01 µM
12,"COc1ncc(-c2ccnc(NC(C)=O)c2)cc1S(=O)(=O)Nc1cccc(C(F)(F)F)c1 [Compound I-329, N-(6-methoxy-5-{[3-(trifluoromethyl)phenyl]sulfamoyl}-3,4′-bipyridin-2′-yl)acetamide]",0.01 to 0.05 µM
13,"CC(=O)Nc1cc(-c2cnc(Cl)c(S(=O)(=O)N[C@H](CO)c3ccccc3)c2)ccn1 [Compound I-330, N-(6-chloro-5-{[(1S)-2-hydroxy-1-phenylethyl]sulfamoyl}-3,4′-bipyridin-2′-yl)acetamide]",> 0.1 µM
14,"COc1ncc(-c2ccnc(NC(C)=O)c2)cc1N(C)C(=O)c1ccc(F)cc1F [Compound I-331, N-(2′-acetamido-6-methoxy-3,4′-bipyridin-5-yl)-2,4-difluoro-N-methylbenzamide]",> 0.1 µM
15,"COC(=O)Nc1cc(-c2cncc(S(=O)(=O)N3CCOCC3)c2)ccn1 [Compound I-332, methyl [5-(morpholin-4-ylsulfonyl)-3,4′-bipyridin-2′-yl]carbamate]",0.01 to 0.05 µM
16,"CC(=O)Nc1cc(-c2cnc(Cl)c(NS(=O)(=O)c3ccc(C(F)(F)F)cc3Cl)c2C)ccn1 [Compound I-333, N-(6-chloro-5-(2-chloro-4-(trifluoromethyl)phenylsulfonamido)-4-methyl-[3,4′-bipyridin]-2′-yl)acetamide]",0.01 to 0.05 µM
17,"CC(=O)Nc1cc(-c2cnc3c(c2)S(=O)(=O)N[C@@H](c2ccccc2)CO3)ccn1 [Compound I-334, (S)-N-[4-(1,1-dioxido-3-phenyl-3,4-dihydro-2H-pyrido[2,3-b][1,4,5]oxathiazepin-8-yl)pyridin-2-yl]acetamide]",> 0.1 µM
18,"CC(=O)Nc1cc(-c2cnc(Cl)c(NS(=O)(=O)c3ccc(C4CC4)cc3F)c2C)ccn1 [Compound I-335, N-(6-chloro-5-{[(4-cyclopropyl-2-fluorophenyl)sulfonyl]amino}-4-methyl-3,4′-bipyridin-2′-yl)acetamide]",0.01 to 0.05 µM
